# Measured values as given in publication PMC8333425, “Discovery of a dual Ras and ARF6 inhibitor from a GPCR endocytosis screen” (Nature Communications, 2021).
# Values joined by “and” are separate entries in the source; they are usually repeats but may differ in a detail not shown here. Equal entries are not always repeated. “Also recorded” adds a separate entry of the source.
# Legend:
# H-Ras [1] = target: H-Ras (Homo sapiens, UniProt P01112); test: In vitro mant-GTP exchange assay, purified H-Ras with purified SOS1; format: biochemical; parameters: the cDNA of H-Ras (full length) was obtained by RT-PCR of HEK293SL; GST (N); host or cells: E. coli BL21; settings: 50 μM
# H-Ras (Homo sapiens, UniProt P01112), sequence (P01112 whole entry): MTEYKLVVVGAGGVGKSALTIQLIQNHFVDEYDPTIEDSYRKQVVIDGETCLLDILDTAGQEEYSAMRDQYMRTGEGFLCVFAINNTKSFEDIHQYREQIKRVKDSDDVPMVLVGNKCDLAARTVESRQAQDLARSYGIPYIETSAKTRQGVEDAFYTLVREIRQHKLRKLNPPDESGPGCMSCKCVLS
# Experimental: Ras activity was assessed in a 384-well black bottom plate using the mant-GTP exchange factor assay that measures the uptake of the fluorescent nucleotide analog N-methylanthraniloyl-GTP (mant-GTP) into GTPases. For Ras activation, 2X exchange buffer, 1.66 μg of purified pGEX-6P-1-H-Ras or pGEX-6P-1-K-Ras-WT or pGEX-6P-1-K-Ras-Y32A were added per well in presence of DMSO, different concentrations of Rasarfin (as indicated) or 50 µM of compounds 21.4, 21.7, or 21.8. Using the Infinite 200 Pro plate reader (Tecan) with filters set at 360 nm and 440 nm for detecting the excitation and emissions, respectively, and temperature set at 20 °C, 5 readings were recorded every 5 s before the addition of either H2O, 40 mM EDTA or 0.66 μg purified SOS1. The fluorescence of mant-GTP uptake was measured every 30 sec for 30 min and quantified as the delta relative fluorescence units (RFU), which was calculated as the RFU post-addition minus the 5 averaged RFU pre-addition, per condition.
# MDA-MB-231 cells [2] = test: Cell viability assay (MTT), MDA-MB-231; format: cell-based, human; settings: for cell viability (MTT signal): S_Fig12f, listed as Comp 21.4
# Experimental: MDA-MB-231 breast cancer cells and A549 lung carcinomas (1500 cells in 150 μl/well) were seeded overnight on a clear 96-well plate. Twenty-four hours later, the cells were treated with 0.1% DMSO, or different concentrations of Rasarfin (as indicated), or 10 µM of 21.4, 21.8 (MDA-MB-231 breast cancer cells) or Doxorubicin for the indicated times at 37 °C. At each time point, 10 μl of 5 mg/ml MTT was added to each well and the plates were incubated for an additional 4 h at 37 °C. The absorbance at 590 nm was measured by plate reader. Experiments were done in triplicate and repeated three times.
# MDA-MB-231 cells [3] = test: Cell proliferation assay (IncuCyte confluence), MDA-MB-231; format: cell-based, human; settings: 10 µM
# Experimental: Cell proliferation was measured by a label-free, non-invasive cellular confluence assay using IncuCyte Live-Cell Imaging Systems (Essen Bioscience, Ann Arbor, MI, USA). MDA-MB-231 breast cancer and A549 lung carcinomas cells (1500 cells in 150 μl/well) were seeded overnight on a clear 96-well plate. Twenty-four hours later, the cells were treated with 0.1% DMSO, or different concentrations of Rasarfin (as indicated), or 10 µM of 21.4 or 21.8 for 96 h total. The plate was placed in an XL-3 incubation chamber maintained at 37 °C and the cells were photographed using a ×4 objective, every 3 h for 4 days. Cell confluence was calculated using IncuCyte S3 software (2019A) and cell proliferation was expressed as an increase in the percentage of confluence. Experiments were done in triplicate and repeated three times.
# AT1R = test: Endosomal BRET assay of AngII-mediated AT1R internalization (AT1R-RlucII / Endo-rGFP; HTS, validation, concentration-response); format: cell-based, human; settings: 50 μM
# Text: We performed a HT campaign in HEK293 cells using the bystander endosomal BRET sensor, which consists of a Renilla luciferase (RlucII)-tagged AT1R and an acceptor renilla GFP (rGFP) anchored to endosomes through an Endofin-FYVE (Endo-rGFP) domain[12]. AngII-mediated trafficking of AT1R to endosomes was screened against commercial libraries of ~115,000 small molecules (Fig. 1a and Supplementary Data 1). Because our assay is based on luminescence and fluorescence, we excluded 6610 compounds that quenched more than 50% of the luciferase or GFP signals. After excluding 5 AT1R antagonists, we conserved hit compounds blocking by more than 40%, as well as those potentiating by more than 100% receptor internalization. From this collection of 943 compounds, a second validation on AT1R internalization was performed using the same BRET assay, as well as on the agonist-mediated B2R internalization, this time using B2R-RlucII and Endo-rGFP. Only compounds that were revalidated on AT1R and affected B2R endocytosis were kept, which included forty hits (20 potentiators and 20 inhibitors) (Fig. 1b and Supplementary Data 2). We focused on inhibitors that were commercially available at the beginning of the project and tested their cell toxicity by microscopy, looking at cells expressing B2R tagged with YFP, which highlights cell contours and potential morphological changes, such as rounding up of cells following treatment with 50 μM of the compounds that may have indicated cell death. None of the inhibitors tested caused abnormal cell morphological changes when cells were treated with compounds as compared to DMSO-treated cells. Inhibitors were also assessed in terms of structure novelty, derivatization potential, and commercial availability of analogs (within 95–98% similarity from Tanimoto metric, Sci-Finder, https://scifinder-n.cas.org), for structure-activity relationship studies (SAR). They were scored 1–5, from best to worst. We excluded compounds with potential nucleophilic reactivity (e.g., Michael addition: compounds 7, 26, and 27), those reported to have biological activities (compounds 8, 20, 25, 30, and 35) and/or showing autofluorescence (compound 26). Compound 19 ranked high, but only had one other molecule with a similar structure available. Although other molecules could be interesting in their own rights as endocytosis inhibitors (e.g., compounds 1, 9, 11, 12, 13, 24, 31, and 37), we focused on compound 21 (Fig. 1c) because not only did it rank high in our analysis, but it was also the only compound with substantially more similar analogs commercially available at the time of these investigations. In the screen and the follow-up validation assay, 21 inhibited more than 50% AT1R internalization and more than 65% B2R internalization (Supplementary Data 2). […] Because β-arrestins are critically involved in GPCR endocytosis and trafficking in cells, we assessed 21’s effects on β-arrestins’ recruitment to AT1R and B2R at the PM using a BRET assay, as well as their trafficking into endosomes by microscopy.
# The chemical library used for initial screening was from Chembridge DiverSet™ (60,000 compounds), Maybridge HitFinder™ (16,000 compounds), Maybridge (selected, 16,000 compounds), SPECS (selected, 16000 compounds), Microsource Discovery Spectrum (2000 compounds), Biomol (natural products, 500 compounds), Prestwick (commercialized products, 1120 compounds), SIGMA LopacTM (1280 compounds) and internal collection (synthesized at Université de Montréal-IRIC, ~4000 compounds). Compounds were all assigned an Université de Montréal number (UM) for internal use. Screen was performed at IRIC HTS facility. KINOMEscan™ profiling was serviced by Eurofin/DiscoverX (San Diego, USA).
# HEK293SL cells were seeded at a density of 7.5 × 10^5 cells per 100-mm dish and 24 h later, transiently transfected as such. […]
# [4] = system: ERK1/2 activation by AT1R; test: Western blot of AT1R-mediated ERK1/2 phosphorylation; format: cell-based, human; settings: 50 μM
# Experimental: HEK293SL cells (10^5 cells per well) were seeded in a poly-L-lysine-coated six-well plate and transiently transfected with 3 μg Flag-AT1R, HA-B2R or HA-β2AR and/or 500 ng Flag-MEK1-WT, Flag-MEK1-DD, Flag-BRAF-WT, Flag-BRAF-V600E, Flag-K-Ras-WT, Flag-K-Ras-G12V, HA-ARF6-WT, or HA-ARF6-T27N. Gαq/11 KO and βarr1/2 KO cells were seeded onto 100 mm dishes at a density of 10^6 cells per dish. Next day, cells were transfected with 3 μg AT1R alone or along with 500 ng of β-arrestin2 using PEI. After 18 h of transfection, cells were detached and re-seeded onto poly-L-lysine coated 12-well plates (~1.5–2 × 10^5cells/well) for subsequent experiments. Forty-eight hours post transfection, in a 37 °C water bath, cells were serum-starved for 30 min, pretreated with DMSO (0.1%) or compound 21/Rasarfin (50 µM or at indicated concentrations) for 30 min, then stimulated or not with the indicated ligand [AngII (1 µM), BK (1 µM), Iso (10 µM) or EGF (100 ng/ml)] at indicated times. Cells were put on ice, washed with PBS and solubilized in 2x laemmli buffer (250 mM Tris–HCl pH 6.8, 2% SDS (w/v), 10% glycerol (v/v), 0.01% bromophenol blue (w/v) and 5% β-mercaptoethanol (v/v)) by heating at 65 °C for 15 min. Lysates were resolved on 10 or 14% SDS-PAGE, transferred to nitrocellulose membranes and immunoblotted for p-ERK1/2, ERK1/2, p-Akt, Akt, HA, Myc, β-actin or FLAG. ImageLab 5.2 software was used to quantify the digital blots as fold of the phosphorylated protein over total protein, which were then normalized as indicated in the figure legends. Uncropped immunoblots are provided in the Source Data file.
# Ras = system: Ras; parameters: method as in PMID 22431598; settings: cited from earlier work
# H-Ras [5] = system: H-Ras; parameters: method as in PMID 27265506; settings: cited from earlier work
Compound,"Ras exchange activity, mant-GTP loading into H-Ras with SOS1 (Fig. 8c) (H-Ras [1])",inhibition of AT1R internalization into endosomes (Fig. 8a) (AT1R),inhibition of AT1R-mediated ERK1/2 (MAPK) activation (Fig. 8b) [4],further results
CC(C)C(=O)N1CCN(c2ccc(NC(=O)c3cc4ccccc4o3)cc2)CC1 [Compound 21.4],lacks Ras and MAPK inhibitory activities; also recorded: had no effect,did not inhibit AT1R internalization,lacks Ras and MAPK inhibitory activities,"metabolic activity of MDA-MB-231 cells (MTT) (MDA-MB-231 cells [2]; 10 µM): moderately decreasing the metabolic activity of cancer cells; cell viability (MTT signal) (MDA-MB-231 cells [2]; 24h): 0.2634 and 0.244 and 0.2; cell viability (MTT signal) (MDA-MB-231 cells [2]; 48h): 0.339 and 0.3215 and 0.2045; MDA-MB-231 cell proliferation (confluency) (MDA-MB-231 cells [3]): only 21.8, which efficiently inhibits MAPK as well as Rasarfin, inhibited cell proliferation"
CCC(=O)N1CCN(c2ccc(NC(=O)c3cccs3)cc2Cl)CC1 [Compound 21.7],had no effect,loss of compounds’ efficacy to inhibit AT1R internalization,lost their ability to inhibit MAPK,–
"Cc1[nH]c2cc(Cl)cc(Cl)c2c1CCN [DCAI, 4,6-dichloro-2-methyl-3-aminoethyl-indole]",–,–,–,SOS binding to Ras and nucleotide exchange (Ras): blocks SOS binding to Ras but only inhibits the nucleotide exchange catalyzed by SOS
NAV-2729,–,–,–,block of H-Ras (H-Ras [5]): inefficacious to block H-Ras
